melting point [°C] | SMILES
192 | N=c1sc2cc(OC(F)(F)F)cc3c2n1CCC3=O [Example 8, 2-imino-8-trifluoromethoxy-2H,4H-thiazolo-[5,4,3-ij]quinolin-6-one]
255 | N=c1sc2cc(OC(F)(F)F)cc3c2n1CC(=O)N3 [Example 37, 2-imino-8-trifluoromethoxy-2H,4H-thiazolo[3,4,5-de]quinoxalin-5(6H)-one]

Reference: US6713468B2, “Methods of using thiazolobenzoheterocycles” (Aventis Pharma S.A., priority 1997, dated 2004)
